Data as given in US12398120B2, “Substituted hydantoinamides as ADAMTS7 antagonists” (BAYER AKTIENGESELLSCHAFT, priority 2019, dated 2025).

Target: ADAMTS4 (Homo sapiens (Human), UniProt O75173)
Experiment: Selectivity assay for ADAMTS-7 modulators: ADAMTS4 (FRET substrate)
Type: biochemical
Settings: ADAMTS4 (R&D 4307-AD) 50 nM, substrate Dabcyl-EEVKAKVQPY-Glu(Edans)-NH2 1 μM, 120 min, 32° C.
Outline: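 Activity read as rising fluorescence after a FRET substrate is cleaved by human ADAMTS4, with reactions started by substrate addition to wells holding compound or DMSO. Percent inhibition plotted against concentration gave IC50.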

Sequence of ADAMTS4 (O75173 213-685): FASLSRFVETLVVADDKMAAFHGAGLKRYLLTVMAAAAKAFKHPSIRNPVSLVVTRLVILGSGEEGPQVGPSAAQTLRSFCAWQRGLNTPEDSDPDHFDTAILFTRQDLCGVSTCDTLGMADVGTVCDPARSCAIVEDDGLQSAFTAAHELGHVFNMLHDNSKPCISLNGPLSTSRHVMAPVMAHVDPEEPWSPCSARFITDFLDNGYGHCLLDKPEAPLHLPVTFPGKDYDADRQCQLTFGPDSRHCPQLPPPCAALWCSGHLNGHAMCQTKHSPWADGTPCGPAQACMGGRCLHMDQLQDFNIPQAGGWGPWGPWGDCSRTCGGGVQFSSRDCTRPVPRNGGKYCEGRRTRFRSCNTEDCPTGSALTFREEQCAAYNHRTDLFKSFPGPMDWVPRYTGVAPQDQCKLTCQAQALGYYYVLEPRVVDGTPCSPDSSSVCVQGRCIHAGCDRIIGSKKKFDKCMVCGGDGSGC

In order of falling IC50:
1. Cc1ccc(C(=O)NCC2(C(C)C)NC(=O)NC2=O)c(-c2ccc(C(F)(F)F)cc2)c1 (stereo not drawn) [Example 203, Ent-N-[(4-Isopropyl-2,5-Dioxoimidazolidin-4-Yl)Methyl]-5-Methyl-4′-(Trifluoromethyl)[Biphenyl]-2-Carboxamide]  46 µM
2. CC(C)(C)c1ccc(-c2cc(F)ccc2C(=O)NC[C@@]2(C3CC3)NC(=O)NC2=O)cc1 [Example 124, 4′-Tert-Butyl-N-{[(4R)-4-Cyclopropyl-2,5-Dioxoimidazolidin-4-Yl]Methyl}-5-Fluoro[Biphenyl]-2-Carboxamide]  42 µM
3. CC(C)C1(CNC(=O)c2ccccc2-c2ccc(C(F)(F)F)cc2)NC(=O)NC1=O (stereo not drawn) [Example 209, Ent-N-[(4-Isopropyl-2,5-Dioxoimidazolidin-4-Yl)Methyl]-4′-(Trifluoromethyl)[Biphenyl]-2-Carboxamide]  36.5 µM
4. Cc1ccc(-c2ncccc2C(=O)NC[C@@]2(C3CC3)NC(=O)NC2=O)cc1 [Example 132, N-{[(4R)-4-Cyclopropyl-2,5-Dioxoimidazolidin-4-Yl]Methyl}-2-(4-Methylphenyl)Nicotinamide]  36 µM
5. CC(C)C1(CNC(=O)c2ccccc2-c2ccc(C(F)(F)F)nc2)NC(=O)NC1=O (stereo not drawn) [Example 211, Ent-N-[(4-Isopropyl-2,5-Dioxoimidazolidin-4-Yl)Methyl]-2-[6-(Trifluoromethyl)Pyridin-3-Yl]Benzamide]  28 µM
6. O=C1NC(=O)[C@](CNC(=O)c2cc(F)c(F)cc2-c2ccc(C3CC3(F)F)cc2)(C2CC2)N1 (stereo partly drawn) [Example 144, N-{[(4R)-4-Cyclopropyl-2,5-Dioxoimidazolidin-4-Yl]Methyl}-4′-(2,2-Difluorocyclopropyl)-4,5-Difluoro[1,1′-Biphenyl]-2-Carboxamide]  25 µM
7. O=C1NC(=O)[C@](CNC(=O)c2ccc(F)cc2-c2ccc(C3CC3(F)F)cc2)(C2CC2)N1 (stereo partly drawn) [Example 142, N-{[(4R)-4-Cyclopropyl-2,5-Dioxoimidazolidin-4-Yl]Methyl}-4′-(2,2-Difluorocyclopropyl)-5-Fluoro[1,1′-Biphenyl]-2-Carboxamide]  18 µM
8. COc1ccc(-c2ccccc2C(=O)NC[C@@]2(C3CC3)NC(=O)NC2=O)cc1 [Example 130, N-{[(4R)-4-Cyclopropyl-2,5-Dioxoimidazolidin-4-Yl]Methyl}-4′-Methoxy[Biphenyl]-2-Carboxamide]  17.3 µM
9. Cn1nccc1C1(CNC(=O)c2ccccc2-c2ccc(C(F)(F)F)cc2)NC(=O)NC1=O (stereo not drawn) [Example 185, Ent-N-{[4-(1-Methyl-1H-Pyrazol-5-Yl)-2,5-Dioxoimidazolidin-4-Yl]Methyl}-4′-(Trifluoromethyl)[Biphenyl]-2-Carboxamide]  16.5 µM
10. O=C1NC(=O)C(CNC(=O)c2ccc(F)cc2-c2ccc(C(F)(F)F)cc2)(c2cscn2)N1 (stereo not drawn) [Example 199, Ent-N-{[2,5-Dioxo-4-(1,3-Thiazol-4-Yl)Imidazolidin-4-Yl]Methyl}-5-Fluoro-4′-(Trifluoromethyl)[Biphenyl]-2-Carboxamide]  16 µM
11. O=C1NC(=O)[C@](CNC(=O)c2ccccc2-c2ccc(OC(F)F)cc2)(C2CC2)N1 [Example 127, N-{[(4R)-4-Cyclopropyl-2,5-Dioxoimidazolidin-4-Yl]Methyl}-4′-(Difluoromethoxy)[Biphenyl]-2-Carboxamide]  13 µM
12. O=C1NC(=O)[C@](CNC(=O)c2ccc(F)cc2-c2ccc(F)cc2)(C2CC2)N1 [Example 128, N-{[(4R)-4-Cyclopropyl-2,5-Dioxoimidazolidin-4-Yl]Methyl}-4′,5-Difluoro[Biphenyl]-2-Carboxamide]  13 µM
13. O=C1NC(=O)C(CNC(=O)c2ccccc2-c2ccc(C(F)(F)F)cc2)(c2cscn2)N1 (stereo not drawn) [Example 197, Ent-N-{[2,5-Dioxo-4-(1,3-Thiazol-4-Yl)Imidazolidin-4-Yl]Methyl}-4′-(Trifluoromethyl)[Biphenyl]-2-Carboxamide]  13 µM
14. Cn1nccc1C1(CNC(=O)c2ccccc2-c2ccc(C(F)(F)F)nc2)NC(=O)NC1=O (stereo not drawn) [Example 190, Ent-N-{[4-(1-Methyl-1H-Pyrazol-5-Yl)-2,5-Dioxoimidazolidin-4-Yl]Methyl}-2-[6-(Trifluoromethyl)Pyridin-3-Yl]Benzamide]  12 µM
15. Cc1ccc(-c2ccccc2C(=O)NCC2(C(C)C)NC(=O)NC2=O)cc1 (stereo not drawn) [Example 205, Ent-N-[(4-Isopropyl-2,5-Dioxoimidazolidin-4-Yl)Methyl]-4′-Methyl[Biphenyl]-2-Carboxamide]  12 µM
16. O=C1NC(=O)[C@](CNC(=O)c2ccc(F)cc2-c2ccc(Cl)cc2)(C2CC2)N1 [Example 126, 4′-Chloro-N-{[(4R)-4-Cyclopropyl-2,5-Dioxoimidazolidin-4-Yl]Methyl}-5-Fluoro[Biphenyl]-2-Carboxamide]  11 µM
17. O=C1NC(=O)[C@](CNC(=O)c2cc(F)ccc2-c2ccc(C3CC3(F)F)cc2)(C2CC2)N1 (stereo partly drawn) [Example 140, N-{[(4R)-4-Cyclopropyl-2,5-Dioxoimidazolidin-4-Yl]Methyl}-4′-(2,2-Difluorocyclopropyl)-4-Fluoro[1,1′-Biphenyl]-2-Carboxamide]  11 µM
18. O=C1NC(=O)[C@](CNC(=O)c2ccc(Cl)cc2-c2ccc(C(F)(F)F)cc2)(C2CC2)N1 [Example 216, 5-Chloro-N-{[(4R)-4-Cyclopropyl-2,5-Dioxoimidazolidin-4-Yl]Methyl}-4′-(Trifluoromethyl)[1,1′-Biphenyl]-2-Carboxamide]  9.1 µM
19. Cn1nccc1C1(CNC(=O)c2ccccc2-c2ccc(S(C)(=O)=O)cc2)NC(=O)NC1=O (stereo not drawn) [Example 194, Ent-N-{[4-(1-Methyl-1H-Pyrazol-5-Yl)-2,5-Dioxoimidazolidin-4-Yl]Methyl}-4′-(Methylsulfonyl)[Biphenyl]-2-Carboxamide]  8.9 µM
20. CC(F)(F)c1ccc(-c2ccccc2C(=O)NC[C@@]2(C3CC3)NC(=O)NC2=O)cc1 [Example 125, N-{[(4R)-4-Cyclopropyl-2,5-Dioxoimidazolidin-4-Yl]Methyl}-4′-(1,1-Difluoroethyl)[Biphenyl]-2-Carboxamide]  8.7 µM
21. O=C1NC(=O)[C@](CNC(=O)c2ccccc2-c2ccc(F)cc2)(C2CC2)N1 [Example 129, N-{[(4R)-4-Cyclopropyl-2,5-Dioxoimidazolidin-4-Yl]Methyl}-4′-Fluoro[Biphenyl]-2-Carboxamide]  8.7 µM
22. O=C1NC(=O)[C@](CNC(=O)c2ccccc2-c2ccccc2)(C2CC2)N1 [Example 131, N-{[(4R)-4-Cyclopropyl-2,5-Dioxoimidazolidin-4-Yl]Methyl}[Biphenyl]-2-Carboxamide]  8.7 µM
23. Cc1ccc(-c2ccccc2C(=O)NCC2(c3nccs3)NC(=O)NC2=O)cc1 (stereo not drawn) [Example 201, Ent-N-{[2,5-Dioxo-4-(1,3-Thiazol-2-Yl)Imidazolidin-4-Yl]Methyl}-4′-Methyl[Biphenyl]-2-Carboxamide]  8.1 µM
24. Cc1scnc1C1(CNC(=O)c2ccccc2-c2ccc(C(F)(F)F)nc2)NC(=O)NC1=O (stereo not drawn) [Example 173, Ent-N-{[4-(5-Methyl-1,3-Thiazol-4-Yl)-2,5-Dioxoimidazolidin-4-Yl]Methyl}-2-[6-(Trifluoromethyl)Pyridin-3-Yl]Benzamide]  7.9 µM
25. Cc1ccc(C(=O)NC[C@@]2(C3CC3)NC(=O)NC2=O)c(-c2ccc(C3CC3(F)F)cc2)c1 (stereo partly drawn) [Example 136, N-{[(4R)-4-Cyclopropyl-2,5-Dioxoimidazolidin-4-Yl]Methyl}-4′-(2,2-Difluorocyclopropyl)-5-Methyl[1,1′-Biphenyl]-2-Carboxamide]  7.1 µM
26. Cn1ccnc1C1(CNC(=O)c2cc(F)c(F)cc2-c2ccc(C3CC3(F)F)cc2)NC(=O)NC1=O (stereo not drawn) [Example 143, 4′-(2,2-Difluorocyclopropyl)-4,5-Difluoro-N-{[4-(1-Methyl-1H-Imidazol-2-Yl)-2,5-Dioxoimidazolidin-4-Yl]Methyl}[1,1′-Biphenyl]-2-Carboxamide]  4.6 µM
27. Cn1ccnc1C1(CNC(=O)c2ccc(F)cc2-c2ccc(C3CC3(F)F)cc2)NC(=O)NC1=O (stereo not drawn) [Example 141, 4′-(2,2-Difluorocyclopropyl)-5-Fluoro-N-{[4-(1-Methyl-1H-Imidazol-2-Yl)-2,5-Dioxoimidazolidin-4-Yl]Methyl}[1,1′-Biphenyl]-2-Carboxamide]  3.6 µM
28. Cc1ccc(-c2cc(Cl)ccc2C(=O)NC[C@@]2(C3CC3)NC(=O)NC2=O)cc1 [Example 215, 5-Chloro-N-{[(4R)-4-Cyclopropyl-2,5-Dioxoimidazolidin-4-Yl]Methyl}-4′-Methyl[Biphenyl]-2-Carboxamide]  3.5 µM
29. Cn1ccnc1C1(CNC(=O)c2ccccc2-c2ccc(C(F)(F)F)nc2)NC(=O)NC1=O (stereo not drawn) [Example 158, Ent-N-{[4-(1-Methyl-1H-Imidazol-2-Yl)-2,5-Dioxoimidazolidin-4-Yl]Methyl}-2-[6-(Trifluoromethyl)Pyridin-3-Yl]Benzamide]  3.05 µM
30. Cc1ccc(C(=O)NC[C@@]2(C3CC3)NC(=O)NC2=O)c(-c2ccc(C(F)(F)F)cc2)c1C [Example 145, N-{[(4R)-4-Cyclopropyl-2,5-Dioxoimidazolidin-4-Yl]Methyl}-5,6-Dimethyl-4′-(Trifluoromethyl)[1,1′-Biphenyl]-2-Carboxamide]  2.8 µM
31. Cn1ccnc1C1(CNC(=O)c2cc(F)ccc2-c2ccc(C3CC3(F)F)cc2)NC(=O)NC1=O (stereo not drawn) [Example 139, 4′-(2,2-Difluorocyclopropyl)-4-Fluoro-N-{[4-(1-Methyl-1H-Imidazol-2-Yl)-2,5-Dioxoimidazolidin-4-Yl]Methyl}[1,1′-Biphenyl]-2-Carboxamide]  2.1 µM
32. Cn1ccnc1C1(CNC(=O)c2ccccc2-c2ccc(C(F)(F)F)cc2)NC(=O)NC1=O (stereo not drawn) [Example 148, Ent-N-{[4-(1-Methyl-1H-Imidazol-2-Yl)-2,5-Dioxoimidazolidin-4-Yl]Methyl}-4′-(Trifluoromethyl)[Biphenyl]-2-Carboxamide]  1.84 µM
33. Cc1ccc(C(=O)NCC2(c3nccn3C)NC(=O)NC2=O)c(-c2ccc(C3CC3(F)F)cc2)c1 (stereo not drawn) [Example 135, 4′-(2,2-Difluorocyclopropyl)-5-Methyl-N-{[4-(1-Methyl-1H-Imidazol-2-Yl)-2,5-Dioxoimidazolidin-4-Yl]Methyl}[1,1′-Biphenyl]-2-Carboxamide]  1.3 µM
